Measurements from patent publication US20230135894A1, “MK2 DEGRADERS AND USES THEREOF” (Kymera Therapeutics, Inc., priority 2021, published 2023).

What was measured:
[1] = molecular target: T1, MK2 (Homo sapiens, UniProt P49137); assay: MK2 degradation in human THP-1 monocytic cells (MSD, 24 h); assay type: cell-based; set-up: endogenous in cells; settings: for Dmax: THP-1, THP-1 cells; for DC50: THP-1 cells, read-out: MK2 MSD THP-1 degradation 24 h GMean External Abs DC50
Procedure, shortened: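 THP-1 cells (200,000/well) treated 24 h at 37 °C with compound dilution series (up to 10 points, 0.1% DMSO). MK2 in RIPA lysates quantified by MSD sandwich immunoassay. DC50 from 4-parameter logistic fit, DMSO-treated cells as high and lysis buffer as low signal.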

[2] = molecular target: T1, MK2; assay: MK2 degradation in human SW1353 cells (MSD, 24 h); assay type: cell-based; set-up: endogenous in cells; host or cells: SW-1353 (ATCC HTB-94); key to MK2 MSD SW 1353 24 h Dmax %: —: “-”=not tested or inactive; settings: for Dmax: read-out: MK2 MSD SW 1353 24 h Dmax %; for DC50: read-out: MK2 MSD SW1353 degradation 24 h GMean External Abs DC50
Procedure, shortened: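 SW1353 chondrosarcoma cells were treated with up to 10-point serial dilutions (0.1% DMSO) for 24 h at 37 °C, then lysed in RIPA buffer. MK2 levels were quantified by MSD sandwich immunoassay; DC50 came from a 4-parameter logistic fit normalised to DMSO-treated cells (high) and lysis buffer (low).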

T1 sequence (P49137 whole entry): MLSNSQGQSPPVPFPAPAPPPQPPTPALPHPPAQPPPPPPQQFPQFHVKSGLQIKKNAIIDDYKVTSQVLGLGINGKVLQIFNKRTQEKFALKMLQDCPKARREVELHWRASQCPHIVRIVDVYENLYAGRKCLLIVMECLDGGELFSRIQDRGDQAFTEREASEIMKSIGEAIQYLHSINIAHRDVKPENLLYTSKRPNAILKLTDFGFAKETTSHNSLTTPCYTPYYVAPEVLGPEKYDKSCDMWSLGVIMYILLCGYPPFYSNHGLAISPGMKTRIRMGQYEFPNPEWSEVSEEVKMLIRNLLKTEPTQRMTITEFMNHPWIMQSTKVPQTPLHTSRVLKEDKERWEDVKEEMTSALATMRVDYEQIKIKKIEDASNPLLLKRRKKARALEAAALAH

| SMILES | Dmax [1] [%] | DC50 [1] [nM] | Dmax [2] [%] | DC50 [2] [nM] | MK2 MSD SW 1353 24 h Dmax % [2] |
| --- | --- | --- | --- | --- | --- |
| O=C1CCC(N2Cc3cc(N4CCN(CC5CCN(c6ccc(F)c(-c7cc(-c8cc9c([nH]8)CCNC9=O)ccn7)c6)CC5)CC4)ccc3C2=O)C(=O)N1 (stereo not shown) [Compound I-301] | < 50 | > 100 | < 50 | > 100 |  |
| C[C@@H]1CNc2c(sc3ccc4nc(-c5ccc(N6CCN(CC7CCN(c8ccc9c(c8)CN(C8CCC(=O)NC8=O)C9=O)CC7)CC6)cc5)ccc4c23)C(=O)N1 (stereo partly shown) [Compound I-302] | > 75 | 1 to 10 | > 75 | 1 to 10 |  |
| C[C@@H]1CNc2c(sc3ccc4nc(-c5cccc(N6CCN(CC7CCN(c8ccc9c(c8)CN(C8CCC(=O)NC8=O)C9=O)CC7)CC6)c5)ccc4c23)C(=O)N1 (stereo partly shown) [Compound I-303] | > 75 | < 1 | > 75 | 1 to 10 |  |
| C[C@@H]1CNc2c(sc3ccc4nc(-c5cccc(N6CCC(CN7CCN(c8ccc9c(c8)CN(C8CCC(=O)NC8=O)C9=O)CC7)CC6)c5)ccc4c23)C(=O)N1 (stereo partly shown) [Compound I-304] | > 75 | 1 to 10 | > 75 | 1 to 10 |  |
| Cn1c(=O)n(C2CCC(=O)NC2=O)c2ccc(C3CCN(CC4CCN(c5ccc(-c6cc(-c7cc8c([nH]7)CCNC8=O)ccn6)c(F)c5)CC4)CC3)cc21 (stereo not shown) [Compound I-305] | > 75 | < 1 | > 75 | < 1 |  |
| C[C@@H]1CNc2c(sc3ccc4nc(-c5ccc(N6CCC(CN7CCN(c8ccc9c(c8)n(C)c(=O)n9C8CCC(=O)NC8=O)CC7)CC6)cc5F)ccc4c23)C(=O)N1 (stereo partly shown) [Compound I-306] | > 75 | < 1 | > 75 | < 1 |  |
| C[C@@H]1CNc2c(sc3ccc4nc(-c5ccc(N6CCC(CN7CCN(c8cccc9c8n(C)c(=O)n9C8CCC(=O)NC8=O)CC7)CC6)cc5F)ccc4c23)C(=O)N1 (stereo partly shown) [Compound I-307] | > 75 | 1 to 10 | > 75 | 1 to 10 |  |
| Cn1c(=O)n(C2CCC(=O)NC2=O)c2cccc(CCCCCCCCN3CCC4(CC3)CNC(=O)c3c4[nH]c4c3CCc3cnc(-c5ccccc5F)cc3-4)c21 (stereo not shown) [Compound I-309] | < 50 | > 100 |  | > 100 | — |
| C[C@@H]1CNc2c(sc3ccc4nc(-c5cccc(N6CCC(CN7CCN(c8cccc9c(N%10CCC(=O)NC%10=O)cncc89)CC7)CC6)c5)ccc4c23)C(=O)N1 [Compound I-310] | > 75 | 1 to 10 | > 75 | 1 to 10 |  |
| C[C@@H]1CNc2c(sc3ccc4nc(-c5ccc(N6CCC(CN7CCC(c8cccc9c(N%10CCC(=O)NC%10=O)cncc89)CC7)CC6)cc5)ccc4c23)C(=O)N1 [Compound I-311] | > 75 | 1 to 10 | > 75 | 1 to 10 |  |
| C[C@@H]1CNc2c(sc3ccc4nc(-c5cccc(N6CCC(CN7CCC(c8cccc9c(N%10CCC(=O)NC%10=O)cncc89)CC7)CC6)c5)ccc4c23)C(=O)N1 [Compound I-312] | > 75 | 1 to 10 | > 75 | 1 to 10 |  |
| C[C@@H]1CNc2c(sc3ccc4nc(-c5ccc(N6CCC(CN7CCN(c8ccc9c(c8)CN(C8CCC(=O)NC8=O)C9=O)CC7)CC6)cc5)ccc4c23)C(=O)N1 (stereo partly shown) [Compound I-313] | > 75 | 1 to 10 | > 75 | 1 to 10 |  |
| C[C@@H]1CNc2c(sc3ccc4nc(-c5ccc(N6CCC(CN7CCN(c8ccc9c(c8)n(C)c(=O)n9C8CCC(=O)NC8=O)CC7)CC6)cc5)ccc4c23)C(=O)N1 (stereo partly shown) [Compound I-314] | > 75 | < 1 | > 75 | < 1 |  |
| C[C@@H]1CNc2c(sc3ccc4nc(-c5ccc(N6CCC(CN7CCN(c8cccc9c8n(C)c(=O)n9C8CCC(=O)NC8=O)CC7)CC6)cc5)ccc4c23)C(=O)N1 (stereo partly shown) [Compound I-315] | > 75 | 1 to 10 | > 75 | 1 to 10 |  |
| Cn1c(=O)n(C2CCC(=O)NC2=O)c2cccc(N3CCC(CN4CCC5(CC4)CNC(=O)c4c5[nH]c5c4CCc4cnc(-c6ccccc6F)cc4-5)CC3)c21 (stereo not shown) [Compound I-316] | < 50 | > 100 | < 50 | > 100 |  |
| C[C@@H]1CNc2c(sc3ccc4nc(-c5ccc(N6CCC(CN7CCN(c8cccc9c(N%10CCC(=O)NC%10=O)cncc89)CC7)CC6)cc5)ccc4c23)C(=O)N1 [Compound I-317] | > 75 | < 1 | > 75 | 1 to 10 |  |
| C[C@@H]1CNc2c(sc3ccc4nc(-c5cccc(N6CCN(C(=O)COCCOCCc7cccc8c7n(C)c(=O)n8C7CCC(=O)N(C)C7=O)CC6)c5)ccc4c23)C(=O)N1 (stereo partly shown) [Compound I-318] | < 50 | > 100 | < 50 | > 100 |  |
| C[C@@H]1CNc2c(sc3ccc4nc(N5CCC6(CCN(CC7CCN(c8ccc9c(c8)n(C)c(=O)n9C8CCC(=O)NC8=O)CC7)CC6)CC5)ccc4c23)C(=O)N1 (stereo partly shown) [Compound I-389] | < 50 | > 100 | < 50 | > 100 |  |
| C[C@@H]1CNc2c(sc3ccc4nc(N5CC6(CCN(CC7CCN(c8ccc9c(c8)n(C)c(=O)n9C8CCC(=O)NC8=O)CC7)CC6)C5)ccc4c23)C(=O)N1 (stereo partly shown) [Compound I-390] | < 50 | > 100 | < 50 | > 100 |  |
| C[C@@H]1CNc2c(sc3ccc4nc(N5CCC(CN6CCC7(CC6)CCN(c6ccc8c(c6)n(C)c(=O)n8C6CCC(=O)NC6=O)CC7)CC5)ccc4c23)C(=O)N1 (stereo partly shown) [Compound I-391] | > 75 | < 1 | > 75 | < 1 |  |
| C[C@@H]1CNc2c(sc3ccc4nc(N5CC6(CCN(C7CCN(c8ccc9c(c8)n(C)c(=O)n9C8CCC(=O)NC8=O)CC7)CC6)C5)ccc4c23)C(=O)N1 (stereo partly shown) [Compound I-393] | < 50 | > 100 | < 50 | > 100 |  |
| C[C@@H]1CNc2c(sc3ccc4nc(N5CCC(N6CCC7(CCN(c8ccc9c(c8)n(C)c(=O)n9C8CCC(=O)NC8=O)CC7)CC6)CC5)ccc4c23)C(=O)N1 (stereo partly shown) [Compound I-395] | > 75 | 1 to 10 | > 75 | < 1 |  |
| C[C@@H]1CNc2c(sc3ccc4nc(N5CCC(N6CCC7(CC6)CN(c6ccc8c(c6)n(C)c(=O)n8C6CCC(=O)NC6=O)C7)CC5)ccc4c23)C(=O)N1 (stereo partly shown) [Compound I-402] | 50 to 75 | 1 to 10 | > 75 | < 1 |  |
| Cn1c(=O)n(C2CCC(=O)NC2=O)c2ccc(N3CC(CN4CCN(c5ccc(-c6nccc(-c7cc8c([nH]7)C7(CC7)CNC8=O)n6)c(F)c5)CC4)C3)cc21 (stereo not shown) [Compound I-403, 3-(5-(3-((4-(3-fluoro-4-(4-(4′-oxo-1′,4′,5′,6′-tetrahydrospiro[cyclopropane-1,7′-pyrrolo[3,2-c]pyridin]-2′-yl)pyrimidin-2-yl)phenyl)piperazin-1-yl)methyl)azetidin-1-yl)-3-methyl-2-oxo-2,3-dihydro-1H-benzo[d]imidazol-1-yl)piperidine-2,6-dionee] | > 75 | < 1 | > 75 | < 1 |  |
| Cn1c(=O)n(C2CCC(=O)NC2=O)c2ccc(N3CC(CN4CCN(c5ccc(-c6nccc(-c7cc8c([nH]7)C7(CCCC7)CNC8=O)n6)cc5)CC4)C3)cc21 (stereo not shown) [Compound I-405] | > 75 | < 1 | > 75 | < 1 |  |
